Laboratory results as given in patent publication US20030138812A1, “Assessment of ecosystem health by evaluating multiple biomarkers in a nonhuman organism” (priority 2000, published 2003).
Where two headings read alike, the source gives them in different places. Marks after values point to notes of the source that are not given here.

Columns and labels:
[1] = test system: Ilyanassa obsoleta (mud snails); assay: Atrazine exposure: biomarker responses in mud snails; type: in vivo; details: 8-hour exposure
Description: Tanks were aerated with air stones. Snails were fed commercially available algal pellets. […]
(§1) Samples for each assay were analyzed in triplicate.
(§2) Sample was then subjected to another protein concentration assay.
(§3) All samples were analyzed in triplicate.

[2] = test system: Palaeomonetes pugio (grass shrimp); assay: Atrazine stress: biomarker responses in grass shrimp; type: in vivo; details: for B-crystallin / Metallo. (metallothionein) / SOD (Mn SOD) / ubiquitin: 8-hour exposure
Description: (§4) During the seven-day acclimation, grass shrimp were subject to a […] photosynthetic-active-radiation 14 hour photoperiod at 22° C. […] Dissolved oxygen, ammonia content, and temperature were continually monitored throughout the seven-day chamber acclimation.
Atrazine stress—Grass shrimp were exposed to […], or 1 mg/L of an acetone stock of technical grade atrazine (99%).
(§5) Samples were vortexed for 30 seconds and then centrifuged at 10,000× g for 5 minutes. The supernatant was placed in a new tube for LPO and GSH analyses. Protein concentration of samples were assayed by the method of Ghosh et al. (1988), supra.
(§6) Samples were then boiled for 3 minutes, allowed to sit at 25° C. for 5 minutes, and then centrifuged at 10,000× g for 5 minutes. […] The sample was then subjected to another protein concentration assay.
(§7) Samples were analyzed for LPO and total GSH content following the manufacturer's instruction. Samples for each assay were analyzed in triplicate, and sample means provided independent unit of statistical analysis.
(§8) All samples were analyzed in triplicate. ELISPOT technique on nitrocellulose membrane was employed using a dot blot apparatus.

[3] = test system: Palaeomonetes pugio (grass shrimp); type: in vivo
From the text: Purified protein of each cellular parameter was run along side control and treated samples.

[4] = test system: Ilyanassa obsoleta (mud snails)
Description: To determine that the antibodies bound to their specific targets, preliminary experiments were conducted to ensure the validity of the antibody assays. Snails were exposed either to high temperature, cadmium, ethanol, or acetone, homogenized in an SDS/50 mM dithiothreitol buffered solution, subjected to SDS-PAGE, immunoblotted to PVDF membrane, and assayed with at least 3 different antibodies per cellular parameter. […] Purified protein of each cellular parameter was run beside control and treated samples.

[5] = test system: Ilyanassa obsoleta (mud snails); type: in vivo
Description: Tanks were aerated with air stones. Snails were fed commercially available algal pellets.
The solvent carrier was water.
No evidence of either was found.
as §1, §2, §3

[6] = test system: Palaeomonetes pugio (grass shrimp); assay: Cadmium stress: biomarker responses in grass shrimp; type: in vivo; details: for Cyt. P450 (cytochrome P450 2E1) / SOD (Mn SOD): 8-hour exposure
Description: as §4
Cadmium stress—Grass shrimp were subjected to an 8-hour exposure to 0 M, […], and […] cadmium chloride. The solvent carrier was water.
as §5, §6, §7, §8

[7] = test system: Ilyanassa obsoleta (mud snails); assay: Endosulfan exposure: biomarker responses in mud snails; details: 8-hour exposure
[8] = control to high atrazine treatments, grass shrimp
[9] = high: 50 M cadmium chloride, 8-hour exposure
[10] = low: 5 M cadmium chloride, 8-hour exposure

With `CCNc1nc(Cl)nc(NC(C)C)n1` [Atrazine, atrazine] the B-crystallin ([1]; high: 1 mg/L atrazine) was 25 ± 2.1 pg Hsp or B-crystallin/ g total protein, the “Cyt. P450 (cytochrome P450 2E1 homologue)” value ([1]; high: 1 mg/L atrazine) was 17.8 ± 3.07 relative protein concentrations and the GSH ([1]; high: 1 mg/L atrazine) was 83 ± 3.1 mM GSH/ g total protein. The Hsp22 ([1]; high: 1 mg/L atrazine) was 6 ± 1.9 pg Hsp or B-crystallin/ g total protein, the Hsp60 ([1]; high: 1 mg/L atrazine) was 0.158 ± 0.0086 pg Hsp or B-crystallin/ g total protein and the Hsp70 ([1]; high: 1 mg/L atrazine) was 121.8 ± 6.08 pg Hsp or B-crystallin/ g total protein. For the same compound, the LPO ([1]; high: 1 mg/L atrazine) was 1.32 ± 0.037 mM LPO/mg total protein, the “Metallo (metallothionein)” value ([1]; high: 1 mg/L atrazine) was 8.6 ± 1.72 ng metallothionein/mg total protein and the “Mn SOD” value ([1]; high: 1 mg/L atrazine) was 7.8 ± 1.66 relative protein concentrations. For the same compound, the ubiquitin ([1]; high: 1 mg/L atrazine) was 41 ± 3.7 ng ubiquitin/ g total protein, the B-crystallin ([1]; low: 1 g/L atrazine) was 29 ± 1.3 pg Hsp or B-crystallin/ g total protein and the “Cyt. P450 (cytochrome P450 2E1 homologue)” value ([1]; low: 1 g/L atrazine) was 18.0 ± 2.90 relative protein concentrations. The GSH ([1]; low: 1 g/L atrazine) was 85 ± 3.6 mM GSH/ g total protein, the Hsp22 ([1]; low: 1 g/L atrazine) was 6 ± 2.0 pg Hsp or B-crystallin/ g total protein and the Hsp70 ([1]; low: 1 g/L atrazine) was 123.4 ± 7.05 pg Hsp or B-crystallin/ g total protein. The LPO ([1]; low: 1 g/L atrazine) was 1.16 ± 0.040 mM LPO/mg total protein, the “Metallo (metallothionein)” value ([1]; low: 1 g/L atrazine) was 18.2 ± 2.06 ng metallothionein/mg total protein and the “Mn SOD” value ([1]; low: 1 g/L atrazine) was 9.0 ± 1.76 relative protein concentrations. For the same compound, the ubiquitin ([1]; low: 1 g/L atrazine) was 42 ± 3.9 ng ubiquitin/ g total protein, the “Levels of LPO decreased” value [2, 8] was 38% and the “levels of Hsp60 increased” value [2, 8] was “nearly five-fold”. For the same compound, the B-crystallin ([2]; high: 1 mg/L atrazine) was 190 ± 27 ng Hsp or B-crystallin/ g total protein, the “Metallo. (metallothionein)” value ([2]; high: 1 mg/L atrazine) was 1.7 ± 0.35 ng metallothionein/mg total protein and the “SOD (Mn SOD)” value ([2]; high: 1 mg/L atrazine) was 7.9 ± 1.86 g SOD/ mg total protein. For the same compound, the B-crystallin ([2]; low: 1 g/L atrazine) was 290 ± 27 ng Hsp or B-crystallin/ g total protein, the “Metallo. (metallothionein)” value ([2]; low: 1 g/L atrazine) was 1.4 ± 0.17 ng metallothionein/mg total protein and the “SOD (Mn SOD)” value ([2]; low: 1 g/L atrazine) was 4.3 ± 0.23 g SOD/ mg total protein. For the same compound, the ubiquitin ([2]; low: 1 g/L atrazine) was 1.44 ± 0.068 nanog ubiquitin/ g total protein, the B-crystallin ([2]; medium: 500 g/L atrazine) was 250 ± 45 ng Hsp or B-crystallin/ g total protein and the “Metallo. (metallothionein)” value ([2]; medium: 500 g/L atrazine) was 1.8 ± 0.45 ng metallothionein/mg total protein. The “SOD (Mn SOD)” value ([2]; medium: 500 g/L atrazine) was 4.6 ± 1.61 g SOD/ mg total protein and the ubiquitin ([2]; medium: 500 g/L atrazine) was 1.38 ± 0.066 nanog ubiquitin/ g total protein.
With `CC(C)=O` [acetone] the “induction of Hsp70 homologues” value ([3]; immunoblot) was “inducible by all treatments except ethanol and acetone”, the “induction of protein detected by Mn SOD antibody (about 23 kDa)” value (“induction … (about 23 kDa)” below) ([3]; immunoblot) was “not by exposure to ethanol or acetone” and the “induction of proteins detected by Cytochrome P450 2E1 antibody (ca. 53 kDa)” value (“induction of proteins detected … (ca. 53 kDa)” below) ([3]; in vivo) was “ethanol- and acetone-inducible”. For the same compound, the “induction of Hsp70 homologues” value ([4]; immunoblot) was “inducible by all treatments except ethanol and acetone”, the “induction of protein detected by Mn SOD antibody (about 26 kDa)” value ([4]; immunoblot) was “not by exposure to acetone” and the “induction of protein detected by Cytochrome P450 2E1 antibody (ca. 50 kDa)” value (“induction of protein detected … (ca. 50 kDa)” for short) ([4]; in vivo) was “ethanol- and acetone-inducible”.
With `CCO` [ethanol] the “induction of Hsp70 homologues” value ([3]; in vivo) was “inducible by all treatments except ethanol and acetone”, the “induction … (about 23 kDa)” value ([3]; in vivo) was “not by exposure to ethanol or acetone” and the “induction of proteins detected … (ca. 53 kDa)” value ([3]; in vivo) was “ethanol- and acetone-inducible”. For the same compound, the “induction of Hsp70 homologues” value ([4]; in vivo) was “inducible by all treatments except ethanol and acetone” and the “induction of protein detected … (ca. 50 kDa)” value ([4]; in vivo) was “ethanol- and acetone-inducible”.
For `[Cl][Cd][Cl]` [Cadmium Chloride, cadmium chloride], the “induction … (about 23 kDa)” value ([3]; immunoblot) was “inducible by both heat stress and cadmium”, the “induction of proteins detected … (ca. 53 kDa)” value ([3]; immunoblot) was “did not elicit significant accumulation” and the “induction of proteins detected by metallothionein antibody (ca. 7 k to 12 kDa)” value ([3]; immunoblot) was “cadmium-inducible”. For the same compound, the “Metallothionine increase in mean levels compared to the control” value ([5]; high CdCl2 concentrations, mud snails) was “more than a six-fold increase”, the “Cyt. P450 (cytochrome P450 2E1 homologue)” value [5, 9] was 27.4 ± 3.14 relative protein concentrations and the LPO [5, 9] was 1.16 ± 0.093 mM LPO/mg total protein. The “Cyt. P450 (cytochrome P450 2E1 homologue)” value [5, 10] was 28.6 ± 3.11 relative protein concentrations, the Hsp60 [5, 10] was 0.419^b ± pg Hsp or B-crystallin/ g total protein and the LPO [5, 10] was 1.1 mM LPO/mg total protein. The “Metallothionine increase in mean levels compared to the control” value ([6]; high CdCl2 concentrations, grass shrimp) was “more than a six-fold increase”, the “Cyt. P450 (cytochrome P450 2E1)” value ([6]; high: 50 uM cadmium chloride) was 12.9 ± 1.26 relative protein concentrations and the “SOD (Mn SOD)” value ([6]; high: 50 uM cadmium chloride) was 4.0 ± 0.16 g SOD/ mg total protein. The “Cyt. P450 (cytochrome P450 2E1)” value ([6]; low: 1 uM cadmium chloride) was 14.5 ± 1.19 relative protein concentrations, the “SOD (Mn SOD)” value ([6]; low: 1 uM cadmium chloride) was 3.3 ± 0.12 g SOD/ mg total protein and the “Cyt. P450 (cytochrome P450 2E1)” value ([6]; medium: 5 uM cadmium chloride) was 13.4 ± 1.48 relative protein concentrations. The “SOD (Mn SOD)” value ([6]; medium: 5 uM cadmium chloride) was 4.3 ± 0.80 g SOD/ mg total protein, the “induction of protein detected … (ca. 50 kDa)” value ([4]; immunoblot) was “did not elicit significant accumulation” and the “induction of protein detected by Mn SOD antibody (about 26 kDa)” value ([4]; immunoblot) was “inducible by both heat stress and cadmium”.
In the case of `O=S1OCC2C(CO1)C1(Cl)C(Cl)=C(Cl)C2(Cl)C1(Cl)Cl` (stereo not shown) [Endosulfan, endosulfan], the B-crystallin ([7]; high: 1 g/L endosulfan) was 13 ± 2.7 pg Hsp or B-crystallin/ g total protein, the Hsp26 ([7]; high: 1 g/L endosulfan) was 23 ± 3.3 pg Hsp or B-crystallin/ g total protein and the “Metallo. (metallothionein)” value ([7]; high: 1 g/L endosulfan) was 14 ± 3.11 ng metallothionein/mg total protein. For the same compound, the B-crystallin ([7]; low: 50 ng/L endosulfan) was 12 ± 3.1 pg Hsp or B-crystallin/ g total protein, the Hsp26 ([7]; low: 50 ng/L endosulfan) was 20 ± 12.673 pg Hsp or B-crystallin/ g total protein and the “Metallo. (metallothionein)” value ([7]; low: 50 ng/L endosulfan) was 19.4 ± 1.99 ng metallothionein/mg total protein. The B-crystallin ([7]; medium: 500 ng/L endosulfan) was 11 ± 3.9 pg Hsp or B-crystallin/ g total protein, the Hsp26 ([7]; medium: 500 ng/L endosulfan) was 19 ± 5.9 pg Hsp or B-crystallin/ g total protein and the “Metallo. (metallothionein)” value ([7]; medium: 500 ng/L endosulfan) was 22.2 ± 3.15 ng metallothionein/mg total protein.
